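How tested: cells in 96-well plates exposed to compound for 48 hours at five concentrations. GI50 marks 50% less growth. TGI denotes the concentration required for complete inhibition of growth.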
Experiments:
Experiment in all cases: growth of human tumour cells (NCI), 48 h
SF-539 CNS = tested on: SF-539 CNS
UACC-62 melanoma = tested on: UACC-62 melanoma
KM12 colon = tested on: KM12 colon
NCI/ADR-RES ovarian = tested on: NCI/ADR-RES ovarian
OVCAR-8 ovarian = tested on: OVCAR-8 ovarian
LOX IMVI melanoma = tested on: LOX IMVI melanoma
OVCAR-3 ovarian = tested on: OVCAR-3 ovarian
SW-620 colon = tested on: SW-620 colon
A549 NSCLC = tested on: A549 NSCLC
NCI-H460 lung = tested on: NCI-H460 lung

| SMILES | GI50 (SF-539 CNS) [µM] | TGI (SF-539 CNS) [µM] | GI50 (UACC-62 melanoma) [µM] | TGI (UACC-62 melanoma) [µM] | GI50 (KM12 colon) [µM] | TGI (KM12 colon) [µM] | GI50 (NCI/ADR-RES ovarian) [µM] | TGI (NCI/ADR-RES ovarian) [µM] | GI50 (OVCAR-8 ovarian) [µM] | TGI (OVCAR-8 ovarian) [µM] | GI50 (LOX IMVI melanoma) [µM] | TGI (LOX IMVI melanoma) [µM] | GI50 (OVCAR-3 ovarian) [µM] | TGI (OVCAR-3 ovarian) [µM] | GI50 (SW-620 colon) [µM] | TGI (SW-620 colon) [µM] | GI50 (A549 NSCLC) [µM] | TGI (A549 NSCLC) [µM] | GI50 (NCI-H460 lung) [µM] | TGI (NCI-H460 lung) [µM] |
| --- | --- | --- | --- | --- | --- | --- | --- | --- | --- | --- | --- | --- | --- | --- | --- | --- | --- | --- | --- | --- |
| CCCCCCCCCCSC(=N)N (tested in a mixture with another compound) | 10.9 | 23.8 | 1.95 | 3.96 | 1.97 | 4.12 | 6.29 | 25.6 | 3.05 | 9.64 | 2.72 | 11.1 | 2.36 | 6.28 | 2.1 | 4.7 | 4.36 | 18 | 2.64 | 6.28 |
| CCOc1ccc(NC2=CC(=O)C(=O)c3ccccc32)cc1 |  | 4.18 |  | 3.2 |  | 12.2 |  | 11.3 |  | 15.4 |  | 2.77 |  | 8.21 |  | 3.53 |  | 7.65 |  | 6.97 |
| CC(=O)OC1(C)N=NC2(CCCCC2)O1 (centres undefined) |  | > 100 |  | > 100 |  | > 100 |  | > 100 |  | > 100 |  | > 100 |  | > 100 |  | > 100 |  | > 100 |  | > 100 |
| CCOC(=O)n1cc(C2=C(c3ccc(OC)c(OC)c3)COC2=O)c2ccccc21 | 0.031 | 0.156 | 0.0436 | > 100 | 0.0441 | 14.1 | 0.0415 | > 100 | 0.0954 | > 100 | 0.0623 | > 100 | 0.0332 | 0.114 | 0.0417 | > 100 | 0.11 | > 100 | 0.122 | 18.3 |
| O=C(Nc1nn2c(-c3cc(C(F)(F)F)cc(C(F)(F)F)c3)nnc2s1)C1CCCC1 | 0.981 | > 100 | 0.253 |  | 0.575 | > 46.2 | 0.641 | > 28.5 | 1.18 | > 100 | 0.807 | > 100 | 0.441 | > 37.8 | 1.74 | > 100 | 1.08 | > 100 | 0.473 | > 100 |
| CN1CCN(C(=O)COc2ccc(C34CC5CC(CC(C5)C3)C4)cc2)CC1 | 12.7 | 25.9 | 11 | 23.4 | 14.8 | 32.4 | 21.7 | 84.4 | 18.2 | 54.1 | 12.3 | 25 | 13.4 | 27.3 | 12.8 | 29.6 | 13 | 37.2 | 13.2 | 27.5 |
| COC(=O)/C=C/c1cc(OC(C)=O)c2c(c1)[C@@H](C(=O)OC)[C@H](c1ccc(OC(C)=O)c(OC(C)=O)c1)O2 | 0.0344 | 0.305 | 0.359 | 26 | 0.203 | 18.7 | 0.0423 | 1.93 | 0.0795 | > 88.3 | 0.0615 | 40.3 | 0.0267 | 0.0681 | 0.0418 | > 100 | 0.248 | > 78.8 | 0.299 | 15 |

Reference: PubChem BioAssay (NCI)
